Measurements as given in patent publication US11286255B2, “Pyridone carboxylic acid derivative or salt thereof” (WAKUNAGA PHARMACEUTICAL CO., LTD., priority 2017, dated 2022).

Legend:
human cancer cells [1] = settings: cited from earlier work
[2] = system: relapsed/refractory acute myeloid leukemia; settings: phase III trial, in combination with cytarabine, over-sixties; cited from earlier work
human cancer cells [3] = settings: cited from earlier work; remark: listed apart in the source
[4] = system: NCI-H460 (human non-small cell lung cancer cell line); test: In vitro cell growth inhibition test against NCI-H460; type: cell-based; settings: 72 h, NCI-H460 cells, 3 days culture, WST-8 (Cell Counting Kit-8), 50% growth inhibition concentration
Procedure: Test Example 1: In Vitro Cell Growth Inhibition Test Against NCI-H460 (Human Non-Small Cell Lung Cancer Cell Line)
An NCI-H460 cell suspension was inoculated at 4×10^3 cells/100 μL/well (0.1 mL) to a 96-well flat-bottomed multiplate using RPMI-1640 (Sigma-Aldrich Co. LLC, R8758) medium containing 10% […] (fetal bovine serum, Thermo Fisher Scientific Inc.), and cultured at 37° C. for 1 day in an incubator containing 5% carbon dioxide. The compound of the present invention was dissolved at a concentration of 1 mM in dimethyl sulfoxide and further diluted into 5.00, 2.50, 1.25, 0.63, 0.31, 0.16, 0.078, and 0.039 μM (final concentrations) using dimethyl sulfoxide and RPMI-1640 medium. Each of these dilutions was added at 0.1 mL/well to the culture plate of the NCI-H460 cells mentioned above after removal of the medium, and the cells were cultured at 37° C. for 3 days in an incubator containing 5% carbon dioxide.
(§1) After the culture, Cell Counting Kit-8 (Dojindo Laboratories), which adopts WST-8 [2-(2-methoxy-4-nitrophenyl)-3-(4-nitrophenyl)-5-(2,4-disulfophenyl)-2H-tetrazolium monosodium salt] as a chromogenic substrate, was added at 10 μL/well, and the cells were cultured under the same conditions as above for 1 hour, followed by measurement of absorbance at 450 nm. A cell survival rate was calculated in terms of 50% growth inhibition concentration (IC50 (μM)) by the least square method with that of a control group defined as 100%.

[5] = system: MV4-11 (human acute myeloid leukemia cell line); test: In vitro cell growth inhibition test against MV4-11; type: cell-based; settings: 72 h, MV4-11 cells, 3 days culture, WST-8 (Cell Counting Kit-8), 50% growth inhibition concentration
Procedure: Test Example 2: In Vitro Cell Growth Inhibition Test Against MV4-11 (Human Acute Myeloid Leukemia Cell Line)
The compound of the present invention was dissolved at a concentration of 1 mM in dimethyl sulfoxide and further diluted into 10.00, 2.50, 0.625, 0.156, 0.039, 0.0098, 0.0024, and 0.00061 μM (final concentrations) using dimethyl sulfoxide and IMDM (Thermo Fisher Scientific Inc., 12440-053) medium. Each of these dilutions was added at 0.05 mL/well to a 96-well flat-bottomed multiplate. An MV4-11 cell suspension was diluted into […] using IMDM (Thermo Fisher Scientific Inc., 12440-053) medium containing […] (fetal bovine serum, Thermo Fisher Scientific Inc.), and this dilution was added at 0.05 mL/well to the compound-containing 96-well flat-bottomed multiplate mentioned above, and cultured at 37° C. for 3 days in an incubator containing 5% carbon dioxide.
as §1, with “WST-8” for “WST-8 [2-(2-methoxy-4-nitrophenyl)-3-(4-nitrophenyl)-5-(2,4-disulfophenyl)-2H-tetrazolium monosodium salt]”, “6 hours,” for “1 hour,”

[6] = system: WI-38 (human fetal lung fibroblast cell line); test: In vitro cell growth inhibition test against WI-38; type: cell-based; settings: WI-38 normal cells, 12.5 μM compound, 3 days culture, WST-8, control group = 100%
Procedure: Test Example 4: In Vitro Cell Growth Inhibition Test Against WI-38 (Human Fetal Lung Fibroblast Cell Line)
A WI-38 cell suspension was inoculated at 5×10^3 cells/100 μL/well (0.1 mL) to a 96-well flat-bottomed multiplate using DMEM (Sigma-Aldrich Co. LLC, D6429) medium containing 10% FBS (fetal bovine serum, Nichirei Biosciences Inc.), and cultured at 37° C. for 1 day in an incubator containing 5% carbon dioxide. Compound A or the compound of the present invention was dissolved at a concentration of 10 mM in dimethyl sulfoxide and further diluted into 12.5 μM (final concentration) using dimethyl sulfoxide and RPMI-1640 medium. This dilution was added at 0.1 mL/well to the culture plate of the WI-38 cells mentioned above after removal of the medium, and the cells were cultured at 37° C. for 3 days in an incubator containing 5% carbon dioxide.
After the culture, Cell Counting Kit-8 (Dojindo Laboratories), which adopts WST-8 as a chromogenic substrate, was added at 10 μL/well, and the cells were cultured under the same conditions as above for 1 hour, followed by measurement of absorbance at 450 nm. A cell survival rate was calculated with that of a control group defined as 100%.

[7] = system: PC-3 (human prostate cancer cell line); test: In vivo antitumor effect test against PC-3 xenograft; design: species or system female Balb/c nu-nu mouse; settings: PC-3 xenograft in Balb/c nu-nu mice, 20 mg/kg, IV, Q7D ×3, tumor growth inhibition vs vehicle group
Procedure: Test Example 3: In Vivo Antitumor Effect Test Against PC-3 (Human Prostate Cancer Cell Line)
A suspension of cancer cells (1×10^7 cells/mL) prepared in RPMI culture medium (Sigma-Aldrich Co. LLC, R8758) was subcutaneously inoculated in an amount of 200 μL to the right abdomen of each female Balb/c nu-nu mouse (Charles River Laboratories Japan, Inc.). After tumor engraftment, animals having a sufficient tumor size were randomly assigned to an active (compound A or compound 078) group and a control (vehicle) group.
Each test compound (drug) was dissolved at each administration concentration in physiological saline containing 12.5 mM sodium hydroxide. The administration of the compound or a vehicle was started on the day of randomization and continued once a week for 21 days. During the test period, the body weights were measured twice a week throughout the treatment period, and tumors were measured twice a week using calipers. The tumor volumes were measured according to the expression V=L×W^2/2 (V: volume, mm3; L: length, mm; W: width, mm). Using the following expression:
% TGI=100−((Average tumor volume of the treatment group Average tumor volume of the control group)×100), tumor growth inhibition was calculated on the basis of the average tumor volume of the vehicle group.

| IC50 [4] [µM] | IC50 [5] [µM] | Structure (SMILES) | antitumor effect in vivo (human cancer cells [1]) | therapeutic effect as compared with a placebo group [2] | antitumor effect in vitro (human cancer cells [3]) | Cell survival rate (%) [6] [%] | % TGI [7] [%] |
| --- | --- | --- | --- | --- | --- | --- | --- |
| – | – | CNC1CN(c2ccc3c(=O)c(C(=O)O)cn(-c4nccs4)c3n2)CC1OC (centres unmarked) [1,4-dihydro-7-(3-methoxy-4-methylamino-1-pyrrolidinyl)-4-oxo-1-(2-thiazolyl)-1,8-naphthyridine-3-carboxylic acid] | excellent antitumor effect | significant therapeutic effect | excellent antitumor effect | – | – |
| 0.37 | 10.3 | CNC1CN(c2ccc3c(=O)c(C(=O)O)cn(-c4nccs4)c3n2)CC1OC (centres unmarked) [Compound A, 1,4-Dihydro-7-(3-methoxy-4-methylamino-1-pyrrolidinyl)-4-oxo-1-(2-thiazolyl)-1,8-naphthyridine-3-carboxylic acid, reference compound] | – | – | – | 26 | 21.7 |
| 0.092 | 1.4 | Cc1cc(N2CC(C(=O)NCC3CCCCO3)C2)nc2c1c(=O)c(C(=O)O)cn2-c1nccs1 (centres unmarked) [Example 078, 5-methyl-7-{3-[(oxan-2-ylmethyl)carbamoyl]azetidin-1-yl}-4-oxo-1-(1,3-thiazol-2-yl)-1,4-dihydro-1,8-naphthyridine-3-carboxylic acid] | – | – | – | 68 | 49.2 |
